≈ marks a conversion by molar mass, not a printed value. Read-outs that look alike come from different tables or passages of the source.
Key:
[1] = test system: L. infantum LV50 promastigotes; assay: MTT-based promastigote viability assay, L. infantum LV50; assay type: cell-based; conditions: Leishmania infantum, LV50, 72 h, MTT
From the text: (§1) Three Tunisian laboratory strains already described ([Oualha et al., 2019]), originally isolated from distinct clinical manifestations were used in this study: (i) L. infantum LV50 MHOM/TN/94/LV50) strain originating from a bone marrow of a visceral leishmaniasis patient, (ii) L. infantum Drep-14 (MHOM/TN/96/Drep-14) strain isolated from a lesion of a sporadic cutaneous leishmaniasis patient and (iii) L. major Empa-12 (MHOM/TN/2012/Empa-12) strain isolated from a zoonotic cutaneous leishmaniasis patient. Stocks of these parasites obtained after passage through BALB/c mice were used as previously described ([Oualha et al., 2019]). Thawed cryopreserved parasites were cultured at 22°C in RPMI-1640/Glutamax medium (Gibco BRL, Germany) containing penicillin (100 U/mL) and streptomycin (100 μg/mL) supplemented with 10% heat-inactivated Fetal Bovine Serum (FBS) (Gibco BRL, Germany).
(§2) The effect of the selected compounds on the viability of Leishmania promastigotes was evaluated by a colorimetric MTT (3-(4,5-dimethylthiazol-2yl)-2,5-diphenyl tetrazolium bromide) assay. It consists in the reduction of tetrazolium salt to a […] crystal (blue formazan) by the succinate dehydrogenase activity of mitochondria in living cells, which can be quantified by spectrophotometry. Briefly, 90 μL of promastigotes (5 × 10^5 parasites/well) harvested from the stationary growth phase of each strain were added to a 96-well culture plate and incubated with 10 μL of a range of serial dilutions of the selected compounds in technical replicates (final concentration of 1% DMSO per well) ([Ioset et al., 2009]; [Harigua-Souiai et al., 2018]). […] After 72h of incubation at 22°C, 25 μl of MTT solution (5 mg/mL) was added to each well and incubated at 22°C for 4h. Then, 150 μl of DMSO was added to each well to dissolve the blue formazan and the optical density (OD) was measured at 570 nm with a microplate reader ([…], Labsystems). Promastigotes incubated in complete medium containing 1% DMSO were used as negative control. The standard anti-Leishmania drug, Amphotericin B was used as a positive control. All experiments were performed in two technical replicates and repeated three times in independent experiments. The mean percentage of promastigotes viability was calculated from the Optical Density at 570 nm as follows:
(§3) Promastigote viability (%)= [(ODcompound− ODblank)/(ODnegative control −ODblank)]*100
(§4) Results were expressed as the mean value of the percentage of promastigotes viability ± standard deviation (SD).

[2] = test system: L. infantum Drep-14 promastigotes; assay: microbe, parasite or virus in culture; assay type: cell-based; conditions: Leishmania infantum, 72 h
From the text: as §1, §2, §3, §4

[3] = test system: L. major Empa-12 promastigotes; assay: MTT-based promastigote viability assay, L. major Empa-12; assay type: cell-based; conditions: Leishmania major, Empa-12, 72 h, MTT
From the text: as §1, §2, §3, §4

[4] = Cytotoxicity assay towards THP-1-derived macrophages (MTT); assay type: cell-based, human; conditions: human, THP-1-derived macrophages (PMA-differentiated); for CC50 at 72 h: 72 h of treatment, uninfected cells, MTT
Description: (§5) Louis, MO, USA). The PMA-treated THP-1 cells were maintained in this condition for 24 h, followed by a 24 h of rest period after the removal of PMA. […] The cytotoxicity towards THP-1-derived macrophages was assessed after 24, 48 and 72 hours of incubation by MTT assay as described above. […] The percentage of viable cells was calculated from the Optical Density at 570 nm as follows: […]

[5] = test system: THP-1-derived macrophages; assay: as above; assay type: cell-based, human; conditions: 24, 48, 72 h
Description: as §5

[6] = test system: L. infantum LV50 intracellular amastigotes; assay: Anti-amastigote assay in THP-1-derived macrophages, L. infantum LV50; assay type: cell-based, Leishmania infantum; conditions: for Selectivity Index (SI): CC50 THP-1 / IC50 amastigotes LV50, 72 h; for IC50: Leishmania infantum, Macrophage, LV50, intramacrophage, 72 h
Description: (§6) THP-1-derived macrophages (5 × 10^4/well) were seeded in each 8-well Labtek slides (Thermo Scientific). Adherent macrophages were obtained as described above, then infected with stationary phase promastigotes of each strain at a ratio 10:1 (10 parasites/macrophage) in RPMI medium containing penicillin (100 U/mL) and streptomycin (100 μg/mL) with 10% fetal bovine serum (Gibco, Brazil) at 37°C in 5% CO2 for 24 h. […] Non-infected control cells were incubated in a supplemented RPMI medium containing 1% DMSO. After 72h of incubation, cells were fixed and stained using May-Grunwald-Giemsa staining with RAL 555 Kit (RAL DIAGNOSTICS, France), following the manufacturer’s instructions. The percentage of infected cells and the total number of internalized parasites per 100 macrophages were determined under immersion oil (magnification of 1000X) using light microscopy. The percentage of amastigotes viability was expressed as the percentage of total number of internalized parasites within treated cells relative to the total number of internalized parasites within control cells treated with 1% DMSO, and calculated as follows:
(§7) Relative amastigote viability (%) = [(number of amastigotes/100 treated cells)/(number of amastigotes/100 treated cells with1% DMSO)] * 100
(§8) The relative percentage of amastigote viability was evaluated to calculate half inhibitory concentrations (IC50). The mean IC50 values were determined by plotting the curves of the logarithm of compound concentrations versus the relative amastigote viability of three independent experiments performed in two technical replicates for each compound fitted into a nonlinear regression model, using GraphPad Prism version 8.0.1. Selectivity Index (SI) values were calculated as the ratio between cytotoxicity and activity against amastigotes and determined for each compound as follows: SI= CC50/IC50.

[7] = test system: L. infantum Drep-14 intracellular amastigotes; assay: Anti-amastigote assay in THP-1-derived macrophages, L. infantum Drep-14; assay type: cell-based, Leishmania infantum; conditions: for Selectivity Index (SI): CC50 THP-1 / IC50 amastigotes Drep-14, 72 h; for IC50: Leishmania infantum, Macrophage, Drep-14, intramacrophage, 72 h
Description: as §6, §7, §8

[8] = test system: L. major Empa-12 intracellular amastigotes; assay: Anti-amastigote assay in THP-1-derived macrophages, L. major Empa-12; assay type: cell-based, Leishmania major; conditions: for Selectivity Index (SI): CC50 THP-1 / IC50 amastigotes Empa-12, 72 h; for IC50: Leishmania major, Macrophage, Empa-12, intramacrophage, 72 h
Description: as §6, §7, §8

[9] = test system: L. infantum (LV50 and Drep-14) and L. major (Empa-12) promastigotes; assay: MTT promastigote viability assay, stated across the three strains; assay type: cell-based, Leishmania infantum, Leishmania major; conditions: 72 h; for IC50: Leishmania infantum, LV50, Drep-14, Empa-12, MTT, read-out: Promastigotes IC50, span over the three strains; for Effect on promastigote viability: three strains, at the tested concentrations
From the text: as §1, §2, §3, §4

[10] = test system: L. major and L. infantum amastigotes; assay: Anti-amastigote assay, stated across the three strains; assay type: cell-based, Leishmania infantum, Leishmania major
Description: as §6, §7, §8

[11] = read-out: Promastigotes IC50 (in brackets) (converted)
[12] = read-out: Promastigotes IC50 (in brackets)
[13] = read-out: THP-1-derived macrophages CC50
[14] = read-out: THP-1-derived macrophages CC50 (in brackets) (converted)
[15] = read-out: Amastigotes IC50 (in brackets) (converted)

Compound CCCC(=O)Nc1ccc(OCC(O)CNC(C)C)c(C(C)=O)c1 (stereo not drawn) [Acebutolol] has an IC50 ([1]; read-out: Promastigotes IC50) of 146 ± 16.4 µg/mL, an IC50 [1, 11] of 390 µM and an IC50 ([2]; read-out: Promastigotes IC50) of 69.3 ± 5.7 µg/mL. It also gave an IC50 [2, 12] of 186 µM, an IC50 ([3]; read-out: Promastigotes IC50) of 103 ± 10.9 µg/mL and an IC50 [3, 11] of 276 µM. For the same compound, the CC50 at 72 h [4, 13] was > 200 µg/mL, the CC50 at 72 h [4, 14] was > 536 µM and the viability at 72 h, 200 µg/mL ([4]; at 200 µg/mL, 72 h, read-out: Macrophage viability) was 90 to 100%. For the same compound, the “Cytotoxicity on THP-1-derived macrophages” value [5] was “no significant cytotoxicity”, the “Selectivity Index (SI)” value [6] was > 12.73 and the IC50 ([6]; read-out: Amastigotes IC50) was 15.7 ± 2.75 µg/mL. For the same compound, the IC50 [6, 15] was 42.1 µM, the “Selectivity Index (SI)” value [7] was > 14.45 and the IC50 ([7]; read-out: Amastigotes IC50) was 13.8 ± 1.41 µg/mL. For the same compound, the IC50 [7, 15] was 37.1 µM, the “Selectivity Index (SI)” value [8] was > 8.98 and the IC50 ([8]; read-out: Amastigotes IC50) was 22.3 ± 1.59 µg/mL. The IC50 [8, 15] was 59.8 µM, the IC50 [9] was 69.3 to 146 µg/mL (≈ 206 to 433 µM) and the “Effect on promastigote viability” value [9] was “dose-dependent decrease of parasite viability”. For the same compound, the IC50 ([10]; 72 h, LV50, Drep-14, Empa-12; intramacrophage, 72 h; read-out: Amastigotes IC50, span over the three strains) was 13.8 to 66.8 µg/mL (≈ 41.1 to 199 µM).
For CCCSc1ccc2nc(NC(=O)OC)[nH]c2c1 [Albendazole], the “Effect on promastigote viability” value [9] was “no effectiveness”.
C[C@@H]1[C@H](O)[C@@H](C)/C=C/C=C/C=C/C=C/C=C/C=C/C=C/[C@H](O[C@@H]2O[C@H](C)[C@@H](O)[C@H](N)[C@@H]2O)C[C@@H]2O[C@](O)(C[C@@H](O)C[C@@H](O)[C@H](O)CC[C@@H](O)C[C@@H](O)CC(=O)O[C@H]1C)C[C@H](O)[C@H]2C(=O)O [Amphotericin B] showed an IC50 ([1]; read-out: Promastigotes IC50) of 0.15 ± 0.01 µg/mL, an IC50 [1, 11] of 0.16 µM and an IC50 ([2]; read-out: Promastigotes IC50) of 0.2 ± 0.004 µg/mL. The IC50 [2, 12] was 0.22 µM, the IC50 ([3]; read-out: Promastigotes IC50) was 0.2 ± 0.01 µg/mL and the IC50 [3, 11] was 0.22 µM. The CC50 at 72 h [4, 13] was > 5 µg/mL, the CC50 at 72 h [4, 14] was > 5.41 µM and the “Cytotoxicity on THP-1-derived macrophages” value [5] was “no cytotoxic effect”. The “Selectivity Index (SI)” value [6] was > 166.66, the IC50 ([6]; read-out: Amastigotes IC50) was 0.03 ± 0.004 µg/mL and the IC50 [6, 15] was 0.032 µM. The “Selectivity Index (SI)” value [7] was > 125.00, the IC50 ([7]; read-out: Amastigotes IC50) was 0.04 ± 0.006 µg/mL and the IC50 [7, 15] was 0.043 µM. For the same compound, the “Selectivity Index (SI)” value [8] was > 100.00, the IC50 ([8]; read-out: Amastigotes IC50) was 0.05 ± 0.005 µg/mL and the IC50 [8, 15] was 0.054 µM. It also gave an IC50 [9] of 0.15 to 0.2 µg/mL (≈ 0.162 to 0.216 µM) and an IC50 ([10]; LV50, Drep-14, Empa-12; intramacrophage, 72 h; read-out: Amastigotes IC50, span over the three strains) of 0.03 to 0.05 µg/mL (≈ 0.0325 to 0.0541 µM).
With NS(=O)(=O)c1cc2c(cc1Cl)N=C(CSCc1ccccc1)NS2(=O)=O [Benzthiazide] the “Effect on promastigote viability” value [9] was “no effectiveness”.
In the case of C=C(CC)C(=O)c1ccc(OCC(=O)O)c(Cl)c1Cl [Ethacrynic acid], the “Effect on promastigote viability” value [9] is reported as “no effectiveness”.
